The source of these data is the supplement of paper PMC11061612.

Common to all, as to test: Bliss excess, mean over the matrix (fraction); higher = more synergy
One test has as its system 786-0 (Kidney Carcinoma). The essentials:
(§1)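 Bliss excess equals the observed combination effect minus the expected value EA + EB − EA·EB, where EA and EB are the effects of each agent alone. Combination Emax is the second-highest inhibition within the matrix. Inhibition was scaled from CellTiter-Glo 2.0 luminescence, with 0 set by vehicle wells and 1 by blank wells, after 72 hours of two-drug dosing of cells plated in 1536-well plates.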

Test [1] relates to BALL-1 (B-Lymphoblastic Leukemia). The essentials: as §1
The test system of test [2] is Becker (Low Grade Glioma). The essentials:
as §1

The test system of the next test is CHL-1 (Melanoma). The essentials:
as §1

Test [3] concerns CML-T1 (Chronic Myelogenous Leukemia). The essentials: as §1
For test [4], the system named is COLO-684 (Endometrial Carcinoma). The essentials:
as §1

In test [5] the test system is Calu-6 (Non-Small Cell Lung Carcinoma). The essentials:
as §1

The next test has as its system ES-2 (Ovarian Carcinoma). The essentials: as §1
Test [6] relates to FLO-1 (Esophageal Adenocarcinoma). The essentials:
as §1

In test [7] the test system is HTC-C3 (Thyroid Gland Carcinoma). The essentials:
as §1

Test [8] has as its system LAMA-84 (Chronic Myelogenous Leukemia). The essentials: as §1
For test [9], the system named is LOUCY (T-Lymphoblastic Leukemia). The essentials:
as §1

Test [10] concerns NCI-H1563 (Lung Adenocarcinoma). The essentials: as §1
Test [11] concerns NCI-H1623 (Lung Adenocarcinoma). The essentials: as §1
Test [12] has as its system NCI-H196 (Small Cell Lung Carcinoma). The essentials: as §1
For test [13], the system named is NCI-H810 (Non-Small Cell Lung Carcinoma). The essentials:
as §1

Test [14] has as its system PC-14 (Lung Adenocarcinoma). The essentials:
as §1

Test [15] concerns RERF-LC-KJ (Lung Adenocarcinoma). The essentials:
as §1

The test system of test [16] is RL95-2 (Endometrial Carcinoma). The essentials:
as §1

For test [17], the system named is SW684 (Other Solid Carcinomas). The essentials:
as §1

Molecules are shown by their SMILES.

For the molecule `C=CCn1c(=O)c2cnc(Nc3ccc(N4CCN(C)CC4)cc3)nc2n1-c1cccc(C(C)(C)O)n1` [AZD1775] + O=C(c1cc(Cc2n[nH]c(=O)c3ccccc23)ccc1F)N1CCN(C(=O)C2CC2)CC1 [Olaparib] (first compound max 1 µM, partner max 10 µM), the Bliss excess with 786-0 (Kidney Carcinoma) was -0.0097; in [1], 0.0054; in test [2] it was -0.0254; in the test on CHL-1 (Melanoma) it was -0.0491; in test [3] it was 0.0213; in test [4] it was -0.12. The Bliss excess in test [5] was -0.0421; in the test on ES-2 (Ovarian Carcinoma), -0.0517; in [6], -0.0673; in test [7] it was -0.0064; in test [8], -0.0086; in test [9], 0.0492. The Bliss excess in test [10] is -0.0288; in test [11], -0.0233; in [12], -0.0552; in test [13], -0.038; in test [14], -0.0248; in [15] it was -0.035. For the same molecule, the Bliss excess was -0.0372 in test [16] and -0.0689 in test [17].

Consider `CC(=O)Nc1cccc(-n2c(=O)n(C3CC3)c(=O)c3c(Nc4ccc(I)cc4F)n(C)c(=O)c(C)c32)c1` [Trametinib] + Cc1nc(-c2cn3c(n2)-c2ccc(-c4cnn(C(C)(C)C(N)=O)c4)cc2OCC3)n(C(C)C)n1 [Taselisib] (first compound max 1 µM, 7x7, partner max 10 µM), for which the Bliss excess in the test with 786-0 (Kidney Carcinoma) is -0.0229; in [1], 0.142; in test [2], 0.121; in the test on CHL-1 (Melanoma) it was 0.171; in test [3], 0.0426; in [4], -0.0034. Also, the Bliss excess in test [5] is 0.168; in the test on ES-2 (Ovarian Carcinoma) it was 0.0915; in test [6], 0.047; in test [7], 0.113; in test [8] it was 0.0537; in test [9] it was 0.0668. The Bliss excess is 0.103 in test [10]; 0.144 in test [11]; 0.0039 in test [12]; -0.052 in test [13]; 0.163 in [14]; 0.0564 in test [15]. Moreover, the Bliss excess in test [16] was found to be 0.0378; in [17], 0.161.

Regarding `COc1cccc(OCCCN)c1-c1cc(Nc2cnc(C#N)cn2)n[nH]1` [Prexasertib] + C=CCn1c(=O)c2cnc(Nc3ccc(N4CCN(C)CC4)cc3)nc2n1-c1cccc(C(C)(C)O)n1 [AZD1775] (first compound max 1 µM, partner max 1 µM), the Bliss excess with 786-0 (Kidney Carcinoma) was 0.0707; in [1], 0.0618; in test [2], 0.0374; in the test on CHL-1 (Melanoma), 0.0485; in test [3], 0.189; in test [4], -0.0042. For the same molecule, the Bliss excess in [5] was -0.0201; in the test with ES-2 (Ovarian Carcinoma) it was 0.0006; in [6], 0.0488; in test [7] it was 0.145; in [8], 0.0731; in test [9], 0.0578. For the same molecule, the Bliss excess is -0.0101 in test [10]; 0.0519 in test [11]; -0.0317 in test [12]; 0.0869 in [13]; 0.0069 in [14]; 0.0487 in test [15]. For the same molecule, the values for the Bliss excess in test [16] and in test [17] were 0.108 and 0.0798, respectively.

For `Cc1c2c(nn1C)CSCc1cc(n(C)n1)CSc1cc(c3ccccc3c1)OCCCc1c(C(=O)O)n(C)c3c-2c(Cl)ccc13` [AZD5991] + C[C@@H](Nc1cc(F)cc(F)c1)c1cc(C(=O)N(C)C)cc2c(=O)cc(N3CCOCC3)oc12 [AZD8186] (first compound max 1 µM, 7x7, partner max 3 µM), the Bliss excess with 786-0 (Kidney Carcinoma) was 0.0005; in test [1], -0.0163; in test [2], 0.0192; in the test with CHL-1 (Melanoma) it was 0.0292; in test [3] it was -0.0081; in test [4], -0.0292. Besides, the Bliss excess in test [5] was -0.0018; with ES-2 (Ovarian Carcinoma), -0.0108; in [6], -0.0486; in [7], -0.014; in test [8], -0.0037; in test [9], -0.0772. Moreover, the Bliss excess in [10] is 0.0003; in test [11], -0.0133; in test [12], -0.0353; in test [13] it was -0.034; in [14], 0.0129; in [15] it was 0.0598. Further, the Bliss excess in test [16] was -0.0802; in test [17], -0.0553.

In the case of `Cn1cnc2c(F)c(Nc3ccc(Br)cc3Cl)c(C(=O)NOCCO)cc21` [Selumetinib] + CCN(CCO)CCCOc1ccc2c(Nc3cc(CC(=O)Nc4cccc(F)c4)[nH]n3)ncnc2c1 [AZD2811] (first compound max 10 µM, 7x7, partner max 1 µM), the Bliss excess is -0.0344 with 786-0 (Kidney Carcinoma); 0.0638 in test [1]; -0.0119 in test [2]; -0.0579 in the test with CHL-1 (Melanoma); 0.0685 in test [3]; -0.0211 in test [4]. The Bliss excess in [5] was -0.0026; in the test with ES-2 (Ovarian Carcinoma), -0.0322; in test [6] it was -0.0448; in [7], -0.0228; in [8], 0.0237; in [9], -0.0979. Also, the Bliss excess is 0.0102 in test [10]; 0.0134 in [11]; -0.057 in test [12]; -0.037 in [13]; 0.0372 in test [14]; -0.003 in test [15]. Moreover, the values for the Bliss excess in [16] and in test [17] were 0.045 and -0.036, respectively.

In the case of `COc1nnc2ccc(N3CCC(c4ccc(OCCN5CCN(C)C(=O)[C@H]5C)cc4)CC3)nn12` [AZD5153] + CC1(C)CCC(CN2CCN(c3ccc(C(=O)NS(=O)(=O)c4ccc(NCC5CCOCC5)c([N+](=O)[O-])c4)c(Oc4cnc5[nH]ccc5c4)c3)CC2)=C(c2ccc(Cl)cc2)C1 [Venetoclax] (first compound max 1 µM, 7x7, partner max 1 µM), the Bliss excess in the test with 786-0 (Kidney Carcinoma) was -0.0762; in test [1], -0.0141; in test [2] it was -0.0487; in the test on CHL-1 (Melanoma), -0.0297; in test [3] it was 0.0479; in [4] it was -0.0435. For the same molecule, the Bliss excess was -0.0949 in test [5]; -0.0677 in the test on ES-2 (Ovarian Carcinoma); -0.005 in test [6]; -0.0648 in test [7]; -0.0361 in test [8]; 0.0241 in [9]. Moreover, the Bliss excess is -0.0496 in [10]; -0.0448 in test [11]; -0.0351 in test [12]; -0.0474 in test [13]; -0.03 in test [14]; -0.0146 in test [15]. Further, the Bliss excess in [16] was -0.0558; in test [17], -0.0705.

In the case of `CC(=O)c1c(C)c2cnc(Nc3ccc(N4CCNCC4)cn3)nc2n(C2CCCC2)c1=O` [Palbociclib] + Cn1cnc2c(F)c(Nc3ccc(Br)cc3Cl)c(C(=O)NOCCO)cc21 [Selumetinib] (first compound max 10 µM, 7x7, partner max 10 µM), the Bliss excess was 0.0079 with 786-0 (Kidney Carcinoma); -0.12 in test [1]; 0.0393 in [2]; -0.0342 with CHL-1 (Melanoma); -0.013 in test [3]; -0.04 in test [4]. In addition, the Bliss excess in test [5] was -0.102; in the test on ES-2 (Ovarian Carcinoma), -0.0041; in test [6], 0.0209; in [7] it was 0.0564; in [8] it was -0.0263; in test [9] it was -0.0138. Besides, the Bliss excess is 0.0092 in [10]; 0.0398 in test [11]; -0.0617 in [12]; -0.0697 in test [13]; 0.0408 in [14]; -0.0208 in test [15]. In addition, the figures for the Bliss excess in test [16] and in [17] were -0.0144 and -0.018, respectively.
